# According to patent US6887897B2, “Calcium glutarate supplement and phosphorus binder” (Mission Pharmacal Company, priority 2001, dated 2005):
# How the values were obtained:
# [1] = aqueous solubility of calcium salts; assay type: physicochemical
# Procedure: (§1) The following in-vitro tests were conducted to test the solubility and ability of calcium glutarate to bind with phosphates. The tests included analysis for monobasic, Ca(Na2PO4)2, dibasic, CaNaPO4, and tribasic, Ca(PO4)2 binding. The three examples are as follows.
# [2] = in-vitro test of ability of calcium glutarate to bind with phosphates (free calcium in filtrate by atomic absorption spectrometry); conditions: filtered through 0.45-μm nylon filter
# Procedure: as §1
# (§2) An aqueous solution of calcium glutarate was mixed with a twice over molar solution of sodium phosphate. A suspension formed which was filtered by a vacuum through a 0.45-μm nylon filter. The resulting filtrate was assayed for free calcium by atomic absorption spectrometry. The percent of calcium recovered in solution was 0.1%.
# as §2, with “mixed with an equi-molar solution of” for “mixed with a twice over molar solution of”, “filtered by vacuum through” for “filtered by a vacuum through”
# An aqueous solution of calcium glutarate was mixed with a two-thirds molar solution of sodium phosphate. A suspension formed which was filtered by vacuum through a 0.45-μm nylon filter. The resulting filtrate was assayed for free calcium by atomic absorption spectrometry. The percent of calcium, recovered in solution was 4.5%.
structure (smiles),measurement,setting,value
O=C([O-])CCCC(=O)[O-].[Ca+2] [calcium glutarate],solubility,[1],about 5.2 gm per 100 cc
same,percent of calcium recovered in solution,[2]; mixed with a twice over molar solution of sodium phosphate,0.1%
same,percent of calcium recovered in solution,[2]; mixed with a two-thirds molar solution of sodium phosphate,4.5%
same,percent of calcium recovered in solution,[2]; mixed with an equi-molar solution of sodium phosphate,0.1%
